Laboratory results reported in PubChem BioAssay (NCI).
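The compound was tested at five concentrations on cells cultured in 96-well plates, with a 48-hour exposure period. GI50 marks 50% less growth. TGI: total growth inhibition.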

Key:
Experiment in all cases: NCI tumour cell line growth inhibition, 48 h
HL-60(TB) leukemia = tested on: HL-60(TB) leukemia
OVCAR-8 ovarian = tested on: OVCAR-8 ovarian
SF-295 CNS = tested on: SF-295 CNS
SK-MEL-5 melanoma = tested on: SK-MEL-5 melanoma
UO-31 renal = tested on: UO-31 renal
DU-145 prostate = tested on: DU-145 prostate
HS 578T breast = tested on: HS 578T breast
PC-3 prostate = tested on: PC-3 prostate
LOX IMVI melanoma = tested on: LOX IMVI melanoma
MDA-MB-231 breast = tested on: MDA-MB-231 breast

Compound `O=C1CC23CCCCCCCCCCC2(C1)CC(=O)C3` (configuration not stated) has a TGI (HL-60(TB) leukemia) of 39.2 µM, a TGI (OVCAR-8 ovarian) greater than 100 µM and a TGI (SF-295 CNS) greater than 100 µM. For the same compound, the TGI (SK-MEL-5 melanoma) was 32.4 µM and the TGI (UO-31 renal) was 61.2 µM.
Compound `COc1ccc(-c2ccc(C3CC(c4ccccc4)=NN3)o2)c([N+](=O)[O-])c1` (configuration not stated) has a GI50 (DU-145 prostate) of 82.6 µM, a TGI (DU-145 prostate) greater than 100 µM and a GI50 (HL-60(TB) leukemia) of 24.9 µM. It also gave a TGI (HL-60(TB) leukemia) of 64.8 µM, a GI50 (HS 578T breast) of 43 µM and a TGI (HS 578T breast) greater than 100 µM. The GI50 (OVCAR-8 ovarian) was 51.2 µM, the TGI (OVCAR-8 ovarian) was greater than 100 µM and the GI50 (PC-3 prostate) was 37.3 µM. It also gave a TGI (PC-3 prostate) greater than 100 µM, a GI50 (SF-295 CNS) of 28.6 µM and a TGI (SF-295 CNS) greater than 100 µM. For the same compound, the GI50 (UO-31 renal) was greater than 100 µM and the TGI (UO-31 renal) was greater than 100 µM.
`CC(C)C[C@@H](N)[C@@H](O)C(=O)N[C@H](C(=O)N[C@H](C(=O)N[C@@H](CC(=O)O)C(=O)O)C(C)C)C(C)C` gave a GI50 (DU-145 prostate) greater than 20 µM, a TGI (DU-145 prostate) greater than 20 µM and a GI50 (HS 578T breast) greater than 20 µM. It also gave a TGI (HS 578T breast) greater than 20 µM, a GI50 (LOX IMVI melanoma) greater than 20 µM and a TGI (LOX IMVI melanoma) greater than 20 µM. It also gave a GI50 (MDA-MB-231 breast) greater than 20 µM, a TGI (MDA-MB-231 breast) greater than 20 µM and a GI50 (OVCAR-8 ovarian) greater than 20 µM. It also gave a TGI (OVCAR-8 ovarian) greater than 20 µM, a GI50 (PC-3 prostate) greater than 20 µM and a TGI (PC-3 prostate) greater than 20 µM. For the same compound, the GI50 (SF-295 CNS) was greater than 20 µM, the TGI (SF-295 CNS) was greater than 20 µM and the GI50 (SK-MEL-5 melanoma) was greater than 20 µM. The TGI (SK-MEL-5 melanoma) was greater than 20 µM, the GI50 (UO-31 renal) was greater than 20 µM and the TGI (UO-31 renal) was greater than 20 µM.
`O=c1c(Cc2ccc3c(c2)OCO3)nnc2sc(-c3cc(F)c(Cl)cc3Cl)nn12` showed a GI50 (LOX IMVI melanoma) of 44.4 µM, a TGI (LOX IMVI melanoma) greater than 100 µM and a GI50 (MDA-MB-231 breast) of 44.9 µM. The TGI (MDA-MB-231 breast) was greater than 100 µM, the GI50 (OVCAR-8 ovarian) was 36.9 µM and the TGI (OVCAR-8 ovarian) was greater than 100 µM. It also gave a GI50 (PC-3 prostate) of 35.4 µM, a TGI (PC-3 prostate) greater than 100 µM and a GI50 (SF-295 CNS) of 72.5 µM. It also gave a TGI (SF-295 CNS) greater than 100 µM, a GI50 (SK-MEL-5 melanoma) of 19.3 µM and a TGI (SK-MEL-5 melanoma) of 50.7 µM. It also gave a GI50 (UO-31 renal) of 50.2 µM and a TGI (UO-31 renal) greater than 100 µM.
Compound `COc1cc2c(cc1C)NC(=O)/C2=C/c1ccnc2ccccc12` has a GI50 (DU-145 prostate) of 29.1 µM, a TGI (DU-145 prostate) greater than 50 µM and a GI50 (HL-60(TB) leukemia) of 30.7 µM. It also gave a TGI (HL-60(TB) leukemia) greater than 50 µM, a GI50 (HS 578T breast) of 40.1 µM and a TGI (HS 578T breast) greater than 50 µM. For the same compound, the GI50 (MDA-MB-231 breast) was 9.49 µM, the TGI (MDA-MB-231 breast) was 32.6 µM and the GI50 (OVCAR-8 ovarian) was 19.1 µM. For the same compound, the TGI (OVCAR-8 ovarian) was greater than 50 µM, the GI50 (PC-3 prostate) was 7.07 µM and the TGI (PC-3 prostate) was greater than 50 µM. For the same compound, the GI50 (SF-295 CNS) was 25.3 µM, the TGI (SF-295 CNS) was greater than 50 µM and the GI50 (SK-MEL-5 melanoma) was 7.89 µM. For the same compound, the TGI (SK-MEL-5 melanoma) was 31.3 µM, the GI50 (UO-31 renal) was 18.9 µM and the TGI (UO-31 renal) was greater than 50 µM.
In the case of `O=S(=O)(NC1=NCCN1C(=S)SN1CCn2c1nsc2=S)c1ccc(Cl)cc1`, the GI50 (DU-145 prostate) is reported as 7.9 µM, the TGI (DU-145 prostate) is reported as 30.9 µM and the GI50 (HS 578T breast) is reported as 14 µM. It also gave a TGI (HS 578T breast) of 75.2 µM, a GI50 (LOX IMVI melanoma) of 3.84 µM and a TGI (LOX IMVI melanoma) of 15.7 µM. It also gave a GI50 (MDA-MB-231 breast) of 4.06 µM, a TGI (MDA-MB-231 breast) of 19.4 µM and a GI50 (OVCAR-8 ovarian) of 7.13 µM. For the same compound, the TGI (OVCAR-8 ovarian) was greater than 100 µM, the GI50 (PC-3 prostate) was 7.54 µM and the TGI (PC-3 prostate) was 22.1 µM. It also gave a GI50 (SF-295 CNS) of 16.7 µM, a TGI (SF-295 CNS) of 34.8 µM and a GI50 (SK-MEL-5 melanoma) of 8.99 µM. For the same compound, the TGI (SK-MEL-5 melanoma) was 21.7 µM, the GI50 (UO-31 renal) was 2.28 µM and the TGI (UO-31 renal) was 5.92 µM.
Compound `C1=CC(=P(c2ccccc2)(c2ccccc2)c2ccccc2)C=C1` has a TGI (HL-60(TB) leukemia) of 9.01 µM, a TGI (LOX IMVI melanoma) of 24.6 µM and a TGI (OVCAR-8 ovarian) of 69.2 µM. For the same compound, the TGI (SF-295 CNS) was 30.8 µM, the TGI (SK-MEL-5 melanoma) was 30.3 µM and the TGI (UO-31 renal) was 30.8 µM.
Compound `O=C(CC1=Nc2nnc(CCCCCCCc3nnc4n3C(=O)C(CC(=O)c3ccc5ccccc5c3)=N4)n2C1=O)c1ccc2ccccc2c1` has a TGI (HL-60(TB) leukemia) greater than 100 µM, a TGI (LOX IMVI melanoma) greater than 100 µM and a TGI (OVCAR-8 ovarian) greater than 100 µM. The TGI (SF-295 CNS) was greater than 100 µM and the TGI (UO-31 renal) was greater than 100 µM.
`COc1ccc(-c2nc3ccccc3s2)cc1OC` showed a TGI (HL-60(TB) leukemia) greater than 100 µM, a TGI (HS 578T breast) greater than 100 µM and a TGI (LOX IMVI melanoma) greater than 100 µM. It also gave a TGI (MDA-MB-231 breast) greater than 100 µM, a TGI (OVCAR-8 ovarian) greater than 100 µM and a TGI (PC-3 prostate) greater than 100 µM. It also gave a TGI (SF-295 CNS) of 88.2 µM, a TGI (SK-MEL-5 melanoma) of 39.1 µM and a TGI (UO-31 renal) greater than 100 µM.
